Laboratory results reported in US20210047324A1 (Aptinyx Inc., priority 2018, published 2021).
Like-named read-outs stand apart in the source and are kept apart here.

Key:
[1] = molecular target: T1, NMDAR2A (Homo sapiens, UniProt Q12879); assay: NMDAR agonist assay, [3H]MK-801 binding, NMDAR2A expressing HEK cell membranes; type: biochemical; parameters: key to NMDAR2A B: log EC50: 0=−; ≥1×10^−9 M (e.g., −8)=+; <1×10^−9 M (e.g., −10)=++; settings: 50 μM glutamate; for EC50: read-out: NMDAR2A B: log EC50 (converted); for Emax: 0.25 h, read-out: NMDAR2A A: % maximal [3H]MK-801 binding relative to 1 mM glycine
T1 construct: expressed in transfected cells; host or cells: HEK cells (membrane extract)
Method in brief: (§1)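 Membranes from HEK cells (300 μg protein) preincubated 15 min with 50 μM glutamate plus compound (1×10^−15–1×10^−7 M) or 1 mM glycine, then with 0.3 μCi [3H]MK-801 for 15 min at 25° C. (nonequilibrium); filter-bound DPM, baseline-subtracted, expressed as % of 1 mM glycine; EC50 and % maximum from three-parameter fit.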

[2] = molecular target: T2, NMDAR2B (Homo sapiens, UniProt Q13224); assay: NMDAR agonist assay, [3H]MK-801 binding, NMDAR2B expressing HEK cell membranes; type: biochemical; settings: 50 μM glutamate; for EC50: read-out: NMDAR2B B: log EC50 (converted); for Emax: read-out: NMDAR2B A: % maximal [3H]MK-801 binding relative to 1 mM glycine
T2 construct: expressed in transfected cells; host or cells: HEK cells (membrane extract)
Method in brief: as §1

[3] = molecular target: T3, NMDAR2C (Homo sapiens, UniProt Q14957); assay: NMDAR agonist assay, [3H]MK-801 binding, NMDAR2C expressing HEK cell membranes; type: biochemical; settings: 50 μM glutamate; for EC50: read-out: NMDAR2C B: log EC50 (converted)
T3 construct: expressed in transfected cells; host or cells: HEK cells (membrane extract)
Experimental: (§2) Assays were conducted as described by Moskal et al., “GLYX-13: a monoclonal antibody-derived peptide that acts as an N-methyl-D-aspartate receptor modulator,” Neuropharmacology, 49, 1077-87, 2005. These studies were designed to determine if the test compounds act to facilitate NMDAR activation in NMDAR2A, NMDAR2B, NMDAR2C or NMDAR2D expressing HEK cell membranes as measured by increases in [^3H]MK-801 binding.
(§3) In the assay, 300 μg of NMDAR expressing HEK cell membrane extract protein was preincubated for 15 minutes at […] in the presence of saturating concentrations of glutamate (50 μM) and varying concentrations of test compound (1×10^−15M-1×10^−7M), or 1 mM glycine. Following the addition of 0.3 μCi of [3H]MK-801 (22.5 Ci/mmol), reactions were again incubated for 15 minutes at 25° C. (nonequilibrium conditions). Bound and free [3H]MK-801 were separated via rapid filtration using a Brandel apparatus.
(§4) In analyzing the data, the DPM (disintegrations per minute) of [3H]MK-801 remaining on the filter were measured for each concentration of test compound or for 1 mM glycine. The DPM values for each concentration of a ligand (N=2) were averaged. The baseline value was determined from the best fit curve of the DPM values modeled using the GraphPad program and the log(agonist) vs. response (three parameters) algorithm was then subtracted from all points in the dataset. The % maximal [^3H]MK-801 binding was then calculated relative to that of 1 mM glycine: all baseline subtracted DPM values were divided by the average value for 1 mM glycine. The EC50 and % maximal activity were then obtained from the best fit curve of the % maximal [3H]MK-801 binding data modelled using the GraphPad program and the log(agonist) vs. response (three parameters) algorithm.
(§5) The tables below summarize the results for the wild type […] NMDAR2A, NMDAR2B, NMDAR2C, and NMDAR2D, and whether the compound is not an agonist (−), is an agonist (+), or is a strong agonist (++), where column A is based on the % maximal [3H]MK-801 binding relative to 1 mM glycine (−=0; <100%=+; and >100%=++); and column B is based on log EC50 values (0=−; ≥1×10^−9 M (e.g., −8)=+; and <1×10^−9 M (e.g., −10)=++).

[4] = molecular target: T4, NMDAR2D (Homo sapiens, UniProt O15399); assay: NMDAR agonist assay, [3H]MK-801 binding, NMDAR2D expressing HEK cell membranes; type: biochemical; settings: 50 μM glutamate
T4 construct: expressed in transfected cells; host or cells: HEK cells (membrane extract)
Experimental: as §2, §3, §4, §5

[5] = IV pharmacokinetics in Sprague Dawley rats; type: in vivo; settings: rat, 2 mg/kg, normal saline
Experimental: Sprague Dawley rats were dosed intravenously using a normal saline formulation containing 2 mg/kg of the compounds identified in the below table. The table below summarizes the results of the IV pharmacokinetics.

[6] = Oral pharmacokinetics in Sprague Dawley rats (plasma, brain, CSF); type: in vivo; settings: rat
Experimental: In another experiment, Sprague Dawley rats were dosed per os (oral gavage) using a normal saline formulation containing 10 mg/kg of the compounds identified in the table below. Plasma, brain, and CSF samples were analyzed at various time points over a 24 hour period. The table below summarizes the results of the oral pharmacokinetics, where the first three values (Tmax, Cmax and AUClast) are plasma values.

[7] = system: Sprague Dawley rats; assay: Porsolt forced swim test; type: in vivo; settings: 0.1 mg/kg
Experimental: A non-clinical in vivo pharmacology study (Porsolt assay) was performed to measure antidepressant-like effects. The study allowed for the evaluation of the effects of each compound on the Porsolt forced swim test as assessed by the rats' response (reduced floating time) during a 5-minute swimming test.
Male 2-3 month old Sprague Dawley rats were used (Harlan, Indianapolis, Ind.). Rats were housed in Lucite cages with aspen wood chip bedding, maintained on a 12:12 light:dark cycle (lights on at 5 AM), and given ad libitum access to Purina lab chow (USA) and tap water throughout the study.
The Porsolt forced swim test adapted for use in rats was performed as described by Burgdorf et al., (The long-lasting antidepressant effects of rapastinel (GLYX-13) are associated with a metaplasticity process in the medial prefrontal cortex and hippocampus. Neuroscience 308:202-211, 2015). Animals were placed in a 46 cm tall×20 cm in diameter clear glass tube filled to 30 cm with tap water (23±1° C.) for 15 min on the first day (habituation) and 5 min on the subsequent test day. Animals were tested 1 h or 24 h post-dosing with the test compounds or vehicle control (0.5% sodium carboxymethyl cellulose in 0.9% sterile saline). A subset of compounds tested at 1 h post-dosing was tested again 1 wk post-dosing. Animals received a 15 min habituation session 1 day before the first 5 min test. Water was changed after every other animal. Animals were videotaped, and floating time as defined as the minimal amount of effort required to keep the animals head above water was scored offline by a blinded experimenter with high inter-rater reliability (Pearson's r >0.9).

[8] = Microsomal stability (Human); type: in vitro ADME; settings: after 60 minutes
Experimental: (§6) Microsomal stability of disclosed compounds was investigated. The following table indicates the percent of compound remaining after 60 minutes.

[9] = Microsomal stability (Rat); type: in vitro ADME; settings: after 60 minutes
Experimental: as §6

[10] = Plasma stability (Human); type: in vitro ADME; settings: after 60 minutes
Experimental: (§7) Plasma stability of disclosed compounds was investigated. The following table indicates the percent of compound remaining after 60 minutes.

[11] = Plasma stability (Rat); type: in vitro ADME; settings: after 60 minutes
Experimental: as §7

[12] = molecular target: T5, NMDAR2D (Homo sapiens, UniProt O15399+Q05586); assay: NMDAR agonist assay, [3H]MK-801 binding, NMDAR2D expressing HEK cell membranes; type: biochemical; settings: 50 μM glutamate; read-out: NMDAR2D B: log EC50 (converted)
T5 construct: expressed in transfected cells; host or cells: HEK cells (membrane extract)
Experimental: as §2, §3, §4, §5

T4 sequence (O15399 28-1336, species assumed, other chains not shown): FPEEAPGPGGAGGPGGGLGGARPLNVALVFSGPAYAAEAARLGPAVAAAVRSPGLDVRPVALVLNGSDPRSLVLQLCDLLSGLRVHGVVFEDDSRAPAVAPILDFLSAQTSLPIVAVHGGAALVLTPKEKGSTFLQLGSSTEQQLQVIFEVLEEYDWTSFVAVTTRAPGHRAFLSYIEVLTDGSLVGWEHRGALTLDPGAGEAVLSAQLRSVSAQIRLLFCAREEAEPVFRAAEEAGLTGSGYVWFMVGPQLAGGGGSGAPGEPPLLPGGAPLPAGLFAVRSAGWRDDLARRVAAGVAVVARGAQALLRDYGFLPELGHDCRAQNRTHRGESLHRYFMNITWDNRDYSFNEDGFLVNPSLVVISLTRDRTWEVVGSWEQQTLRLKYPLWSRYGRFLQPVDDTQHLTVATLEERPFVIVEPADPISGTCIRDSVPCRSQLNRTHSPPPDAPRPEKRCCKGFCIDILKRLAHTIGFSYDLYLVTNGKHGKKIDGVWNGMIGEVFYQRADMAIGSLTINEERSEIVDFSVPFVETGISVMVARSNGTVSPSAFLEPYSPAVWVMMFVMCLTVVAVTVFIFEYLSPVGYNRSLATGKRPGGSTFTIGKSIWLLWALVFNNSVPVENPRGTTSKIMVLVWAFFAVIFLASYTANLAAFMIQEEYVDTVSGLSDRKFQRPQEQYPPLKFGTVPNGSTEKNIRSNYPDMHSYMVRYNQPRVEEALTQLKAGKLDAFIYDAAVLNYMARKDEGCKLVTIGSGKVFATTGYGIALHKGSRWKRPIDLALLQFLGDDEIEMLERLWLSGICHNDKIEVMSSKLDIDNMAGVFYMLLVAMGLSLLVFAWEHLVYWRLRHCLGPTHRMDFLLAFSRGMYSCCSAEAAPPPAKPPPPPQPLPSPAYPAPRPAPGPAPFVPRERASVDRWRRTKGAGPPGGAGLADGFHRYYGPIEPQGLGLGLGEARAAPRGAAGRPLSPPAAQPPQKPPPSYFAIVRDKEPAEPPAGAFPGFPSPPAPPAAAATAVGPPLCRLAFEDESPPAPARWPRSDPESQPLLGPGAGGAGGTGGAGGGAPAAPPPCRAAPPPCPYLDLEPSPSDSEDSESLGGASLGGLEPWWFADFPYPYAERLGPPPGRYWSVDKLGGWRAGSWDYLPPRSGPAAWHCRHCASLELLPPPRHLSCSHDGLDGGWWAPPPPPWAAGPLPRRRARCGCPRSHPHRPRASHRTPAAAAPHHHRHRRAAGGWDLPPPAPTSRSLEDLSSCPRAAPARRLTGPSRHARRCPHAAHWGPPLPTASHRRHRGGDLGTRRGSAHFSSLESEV
T1 sequence (Q12879 23-1464, species assumed, other chains not shown): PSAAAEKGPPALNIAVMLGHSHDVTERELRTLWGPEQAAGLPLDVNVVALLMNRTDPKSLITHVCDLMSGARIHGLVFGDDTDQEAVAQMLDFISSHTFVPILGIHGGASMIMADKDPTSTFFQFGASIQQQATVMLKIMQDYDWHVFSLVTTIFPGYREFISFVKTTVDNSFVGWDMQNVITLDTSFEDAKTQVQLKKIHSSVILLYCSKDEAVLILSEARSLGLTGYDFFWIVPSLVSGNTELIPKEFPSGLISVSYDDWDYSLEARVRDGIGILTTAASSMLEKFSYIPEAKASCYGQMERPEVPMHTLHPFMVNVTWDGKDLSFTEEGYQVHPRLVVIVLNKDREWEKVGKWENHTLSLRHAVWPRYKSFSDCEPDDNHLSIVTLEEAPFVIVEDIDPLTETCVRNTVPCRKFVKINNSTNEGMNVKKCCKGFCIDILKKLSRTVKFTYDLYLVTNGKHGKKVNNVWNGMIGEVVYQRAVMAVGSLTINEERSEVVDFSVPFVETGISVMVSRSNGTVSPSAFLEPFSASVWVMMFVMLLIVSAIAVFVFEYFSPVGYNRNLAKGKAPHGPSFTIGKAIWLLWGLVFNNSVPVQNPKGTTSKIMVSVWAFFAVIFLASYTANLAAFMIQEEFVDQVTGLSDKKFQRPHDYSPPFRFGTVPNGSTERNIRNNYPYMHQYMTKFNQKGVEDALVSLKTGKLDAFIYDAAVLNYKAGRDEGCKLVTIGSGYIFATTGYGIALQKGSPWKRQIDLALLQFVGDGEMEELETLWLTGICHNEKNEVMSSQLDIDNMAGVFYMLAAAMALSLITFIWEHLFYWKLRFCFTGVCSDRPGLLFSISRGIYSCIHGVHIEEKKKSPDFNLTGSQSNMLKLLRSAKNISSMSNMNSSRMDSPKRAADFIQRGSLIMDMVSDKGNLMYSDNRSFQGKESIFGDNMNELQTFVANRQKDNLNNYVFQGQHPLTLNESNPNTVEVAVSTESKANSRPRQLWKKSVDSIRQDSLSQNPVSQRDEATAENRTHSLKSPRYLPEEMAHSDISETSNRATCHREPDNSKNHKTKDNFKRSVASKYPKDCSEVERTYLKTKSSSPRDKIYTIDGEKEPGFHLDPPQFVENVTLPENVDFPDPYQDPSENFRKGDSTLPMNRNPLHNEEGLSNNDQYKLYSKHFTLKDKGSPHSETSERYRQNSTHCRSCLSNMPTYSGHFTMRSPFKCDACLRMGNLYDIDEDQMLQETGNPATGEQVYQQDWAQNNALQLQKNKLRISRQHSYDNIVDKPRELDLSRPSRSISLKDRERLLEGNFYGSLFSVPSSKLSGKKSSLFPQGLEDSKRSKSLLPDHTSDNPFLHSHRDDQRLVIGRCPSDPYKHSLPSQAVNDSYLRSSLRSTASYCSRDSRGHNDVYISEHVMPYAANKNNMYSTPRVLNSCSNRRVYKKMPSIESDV
T2 sequence (Q13224 27-1484, species assumed, other chains not shown): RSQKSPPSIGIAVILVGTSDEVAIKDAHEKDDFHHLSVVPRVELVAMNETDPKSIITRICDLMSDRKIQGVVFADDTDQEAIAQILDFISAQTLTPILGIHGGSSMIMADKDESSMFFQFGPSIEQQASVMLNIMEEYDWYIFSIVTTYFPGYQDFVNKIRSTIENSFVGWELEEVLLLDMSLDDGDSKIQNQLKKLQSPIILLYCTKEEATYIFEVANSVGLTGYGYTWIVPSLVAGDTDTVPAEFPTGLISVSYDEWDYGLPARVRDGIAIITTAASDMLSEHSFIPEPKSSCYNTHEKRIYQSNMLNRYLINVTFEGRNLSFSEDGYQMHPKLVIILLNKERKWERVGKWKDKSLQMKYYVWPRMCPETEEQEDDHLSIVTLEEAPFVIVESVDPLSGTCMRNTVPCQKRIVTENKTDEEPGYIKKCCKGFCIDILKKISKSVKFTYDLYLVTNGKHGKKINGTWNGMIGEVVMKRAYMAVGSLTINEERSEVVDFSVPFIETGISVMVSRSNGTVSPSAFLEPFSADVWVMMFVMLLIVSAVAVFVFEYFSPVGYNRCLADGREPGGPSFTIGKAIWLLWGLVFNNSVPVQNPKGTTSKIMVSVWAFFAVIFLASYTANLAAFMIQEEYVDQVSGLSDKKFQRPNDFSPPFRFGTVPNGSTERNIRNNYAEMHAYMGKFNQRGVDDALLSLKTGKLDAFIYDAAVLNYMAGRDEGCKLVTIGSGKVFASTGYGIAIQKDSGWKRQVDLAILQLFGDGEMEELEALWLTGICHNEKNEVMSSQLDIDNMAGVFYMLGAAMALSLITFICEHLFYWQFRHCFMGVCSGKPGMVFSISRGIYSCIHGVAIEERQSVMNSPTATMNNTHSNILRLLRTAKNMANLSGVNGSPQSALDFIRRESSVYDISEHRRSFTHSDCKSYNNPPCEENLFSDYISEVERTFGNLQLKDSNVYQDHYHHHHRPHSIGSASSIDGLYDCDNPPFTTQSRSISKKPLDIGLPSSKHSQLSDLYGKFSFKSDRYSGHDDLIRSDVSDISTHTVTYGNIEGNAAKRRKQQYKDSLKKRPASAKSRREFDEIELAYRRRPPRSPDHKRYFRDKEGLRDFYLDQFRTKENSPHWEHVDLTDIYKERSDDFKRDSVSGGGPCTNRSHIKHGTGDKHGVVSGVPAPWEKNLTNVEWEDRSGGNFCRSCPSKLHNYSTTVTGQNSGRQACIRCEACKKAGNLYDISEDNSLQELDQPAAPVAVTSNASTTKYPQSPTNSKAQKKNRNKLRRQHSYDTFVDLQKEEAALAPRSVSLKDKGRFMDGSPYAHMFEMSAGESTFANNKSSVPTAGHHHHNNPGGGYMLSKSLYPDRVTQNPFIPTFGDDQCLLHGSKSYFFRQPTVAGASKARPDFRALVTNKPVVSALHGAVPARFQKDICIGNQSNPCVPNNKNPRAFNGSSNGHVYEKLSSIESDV
T5 sequence (O15399 28-1336, species assumed, other chains not shown): as the sequence (O15399 28-1336, species assumed, other chains not shown) above

Row | SMILES | EC50 [1] | EC50 [2] | EC50 [3] | NMDAR2C A: % maximal [3H]MK-801 binding relative to 1 mM glycine [3] | NMDAR2D A: % maximal [3H]MK-801 binding relative to 1 mM glycine [4] | CSF Cmax ([6]; per os, 10 mg/kg) | Brain Cmax ([6]; per os, 10 mg/kg) | % reduction in float time ([7]; 1 h post-dose) | Significance vs. vehicle ([7]; 1 h post-dose) | Microsomal (Human): percent of compound remaining [8] | Microsomal (Rat): percent of compound remaining [9] | Plasma (Human): percent of compound remaining [10] | Plasma (Rat): percent of compound remaining [11] | Emax ([1]; relative to 1 mM glycine) | Emax ([2]; relative to 1 mM glycine) | EC50 [12] | further results
1 | CC(C)(C)OC(=O)N1CCCC12CCCNC2=O (single isomer, unassigned) [EV-2, tert-butyl 6-oxo-1,7-diazaspiro[4.5]decane-1-carboxylate] | < 1 nM | < 1 nM | < 1 nM | + (<100%=+) | + (<100%=+) | 2324.1 ng/mL | 1213 ng/mL | 84% | Yes | 79% | 91% | 100% | 79% |  |  |  | NMDAR2A A: % maximal [3H]MK-801 binding relative to 1 mM glycine ([1]; relative to 1 mM glycine): + (<100%=+); NMDAR2B A: % maximal [3H]MK-801 binding relative to 1 mM glycine ([2]; relative to 1 mM glycine): + (<100%=+); EC50 ([4]; read-out: NMDAR2D B: log EC50 (converted)): < 1 nM; AUClast [5]: 1138.1 ng·h/mL; Cl [5]: 28.4 mL/min/kg; Cmax [5]: 2608.4 ng/mL; T1/2 [5]: 0.41 h; Vss [5]: 0.88 L/kg; % F ([6]; per os 10 mg/kg): 63%; AUC(0-last) ([6]; per os, 10 mg/kg, plasma): 3567.9 ng·h/mL; Cmax ([6]; per os, 10 mg/kg, plasma): 4346 ng/mL; Tmax ([6]; per os, 10 mg/kg, plasma): 0.25 h; % reduction in float time ([7]; 24 h post-dose): 76%; Significance vs. vehicle ([7]; 24 h post-dose): Yes
2 | O=C1NCCCC[C@@]12CCCN2 [AU-2, (R)-1,7-diazaspiro[4.6]undecan-6-one] |  | < 1 nM | < 1 nM | + (<100%=+) | + (<100%=+) |  |  |  |  |  |  |  |  | 0% | < 100% | < 1 nM | NMDAR2A B: log EC50 [1]: −
3 | CC(C)(C)OC(=O)N1CCCCCC12CNC2=O (single isomer, unassigned) [EI-1, tert-butyl 1-oxo-2,5-diazaspiro[3.6]decane-5-carboxylate] | < 1 nM |  |  |  | + (<100%=+) |  |  |  |  |  |  |  |  | < 100% |  | < 1 nM | 
4 | O=C1NCCCC[C@]12CCCN2 [AU-1, (S)-1,7-diazaspiro[4.6]undecan-6-one] | ≥ 1 nM | < 1 nM | < 1 nM | ++ (>100%=++) | 0% | 199.26 ng/mL | 514.7 ng/mL | 86% | Yes | 100% | 91% | 100% | 100% | < 100% | < 100% |  | AUC(0-t) ([5]; Sprague-Dawley, in vivo, iv): 1840 ng·h/mL; clearance ([5]; Sprague-Dawley, in vivo, iv): 17.8 mL/min/kg; half-life ([5]; Sprague-Dawley, in vivo, iv): 1.41 h; Cmax ([5]; Sprague-Dawley, in vivo, iv, read-out: Cmax): 1620 ng/mL; Vd ([5]; Sprague-Dawley, in vivo, iv, read-out: Vss): 1.63 L/kg; Tmax ([6]; Sprague-Dawley, po, per os, 10 mg/kg, plasma, read-out: Tmax): 1 h; AUC(0-t) ([6]; Sprague-Dawley, plasma, po, 10 mg/kg, per os): 6960 ng·h/mL; bioavailability ([6]; Sprague-Dawley, plasma, po, 10 mg/kg, per os 10 mg/kg): 75%; Cmax ([6]; Sprague-Dawley, plasma, po, 10 mg/kg, per os, 10 mg/kg, plasma, read-out: Cmax): 2440 ng/mL
